Assay results reported in patent US20260297042A1, “BIARYLAMIDE DERIVATIVES AND THEIR USE AS PKMYT1 INHIBITORS” (CANCER RESEARCH TECHNOLOGY LIMITED, priority 2023, published 2026).

What was measured:
Human PKMYT1 = target: T1, Human PKMYT1 (Homo sapiens, UniProt Q99640); experiment: PKMYT1 biochemical ADP-Glo enzymatic assay; conditions: ADP-Glo
T1 construct: Human PKMYT1 75-362 was cloned as a TEV cleavable 6xHis fusion; 6xHis (TEV cleavable) (cleaved yes); made in house; host or cells: bacterial cells
T1 sequence (Q99640 75-362): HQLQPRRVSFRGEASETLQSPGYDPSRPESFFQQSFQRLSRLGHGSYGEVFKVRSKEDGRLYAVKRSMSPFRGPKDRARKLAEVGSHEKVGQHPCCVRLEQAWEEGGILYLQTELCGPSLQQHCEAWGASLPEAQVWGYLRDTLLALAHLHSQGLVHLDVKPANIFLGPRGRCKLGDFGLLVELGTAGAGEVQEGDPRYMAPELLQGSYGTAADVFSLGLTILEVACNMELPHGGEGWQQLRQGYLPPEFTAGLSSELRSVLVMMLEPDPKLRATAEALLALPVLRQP
Procedure, shortened: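 Purified untagged human PKMYT1 75-362 at 15 nM final was tested in HEPES pH 7.5 with MgCl2, EGTA, Brij-35 and 1% DMSO. Intrinsic ATPase activity was measured with 500 uM ATP over 60 min at 26° C. ADP-Glo luminescence was read and IC50 fitted from 10-point, 3-fold dilution curves.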

WEE1 = target: T2, WEE1 (Homo sapiens, UniProt P30291); experiment: Selectivity versus WEE1 assay (ADP-Glo enzymatic assay); type: biochemical; conditions: for IC50: ADP-Glo; for PKMYT1 vs. WEE1 selectivity: fold difference in selectivity for PKMYT1 over WEE1
T2 construct: purchased Thermo Fisher PR7373A
T2 sequence (P30291 whole entry): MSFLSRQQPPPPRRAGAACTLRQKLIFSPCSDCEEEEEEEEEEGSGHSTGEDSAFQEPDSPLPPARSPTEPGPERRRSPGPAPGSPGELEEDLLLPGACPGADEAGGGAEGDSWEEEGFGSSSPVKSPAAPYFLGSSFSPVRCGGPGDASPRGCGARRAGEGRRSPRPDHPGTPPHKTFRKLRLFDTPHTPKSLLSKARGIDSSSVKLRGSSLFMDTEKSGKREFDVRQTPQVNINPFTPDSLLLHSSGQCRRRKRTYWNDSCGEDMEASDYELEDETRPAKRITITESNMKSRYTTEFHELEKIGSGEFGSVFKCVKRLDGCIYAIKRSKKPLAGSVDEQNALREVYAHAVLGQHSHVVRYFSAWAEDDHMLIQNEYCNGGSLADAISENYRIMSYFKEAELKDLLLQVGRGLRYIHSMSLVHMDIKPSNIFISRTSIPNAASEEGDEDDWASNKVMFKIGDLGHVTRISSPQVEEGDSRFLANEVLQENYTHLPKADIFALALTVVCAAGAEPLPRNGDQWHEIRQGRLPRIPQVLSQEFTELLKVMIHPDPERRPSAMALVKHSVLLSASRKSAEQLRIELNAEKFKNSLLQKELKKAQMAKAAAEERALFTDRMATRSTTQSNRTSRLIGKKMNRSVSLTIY
Procedure, shortened: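 WEE1 at 15 nM final in 50 mM HEPES pH 7.5, 10 mM MgCl2, 1 mM EGTA, 0.01% Brij-35, 1% DMSO; reaction started with 30 µM ATP, 60 min at 26 °C. ADP-Glo luminescence; IC50 from dose-response curves, replicates within 3-fold and r2 >0.9.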

[1] = PKMYT1 kinase domain 15 nM, banded values
[2] = 15 nM PKMYT1 kinase domain, 500 µM ATP, 60 minutes at 26° C., banded
[3] = 15 nM WEE1, 60 minutes at 26° C., banded
[4] = banded, ">N" = at least in this band but could be higher

Row | SMILES | IC50 (Human PKMYT1; [1]) [µM] | IC50 (WEE1; WEE1 15 nM, banded values) [µM] | PKMYT1 vs. WEE1 selectivity (WEE1; banded) | IC50 (Human PKMYT1; [2]) [µM] | IC50 (WEE1; [3]) [µM] | PKMYT1 vs. WEE1 selectivity (WEE1; [4])
1 | Cc1ccc(O)c(C)c1NC(=O)c1cnc(Nc2ccc3c(c2)NC(=O)CO3)s1 [BAA-515, N-(3-hydroxy-2,6-dimethylphenyl)-2-((3-oxo-3,4-dihydro-2H-benzo[b][1,4]oxazin-6-yl)amino)thiazole-5-carboxamide] | < 0.05 | 1 to 11 | X (100-<1000 fold) | – | – | –
2 | Cc1ccc(O)c(C)c1NC(=O)c1cnc(Nc2cc(C)n(CCC(N)=O)n2)s1 [BAA-239, 2-((1-(3-amino-3-oxopropyl)-5-methyl-1H-pyrazol-3-yl)amino)-N-(3-hydroxy-2,6-dimethylphenyl)thiazole-5-carboxamide] | – | – | – | 0.05 to 1 | 1 to 11 | W (10-<100 fold)
3 | Cc1ccc(O)c(C)c1NC(=O)c1cnc(Nc2ncn(C)n2)s1 [BAA-265, N-(3-hydroxy-2,6-dimethylphenyl)-2-((1-methyl-1H-1,2,4-triazol-3-yl)amino)thiazole-5-carboxamide] | – | – | – | < 0.05 | > 11 | X (100-<1000 fold)
4 | Cc1ccc(O)c(C)c1NC(=O)c1cnc(Nc2ccn(CC(=O)NCCN3CCCC3)n2)s1 [BAA-167] | – | – | – | 0.05 to 1 | > 11 | X (100-<1000 fold)
5 | Cc1ccc(O)c(C)c1NC(=O)c1cnc(NCc2ccccn2)s1 [BAA-349, N-(3-hydroxy-2,6-dimethylphenyl)-2-((pyridin-2-ylmethyl)amino) thiazole-5-carboxamide] | – | – | – | 0.05 to 1 | > 11 | X (100-<1000 fold)
6 | COCc1cc(Nc2ncc(C(=O)Nc3c(C)ccc(O)c3C)s2)nn1C [BAA-252, N-(3-hydroxy-2,6-dimethylphenyl)-2-((5-(methoxymethyl)-1-methyl-1H-pyrazol-3-yl)amino)thiazole-5-carboxamide] | – | – | – | 0.05 to 1 | 1 to 11 | X (100-<1000 fold)
7 | Cc1cn(-c2cncn2C)nc1Nc1ncc(C(=O)Nc2c(C)ccc(O)c2C)s1 [BAA-387, N-(3-hydroxy-2,6-dimethylphenyl)-2-((4-methyl-1-(1-methyl-1H-imidazol-5-yl)-1H-pyrazol-3-yl)amino)thiazole-5-carboxamide] | – | – | – | < 0.05 | 1 to 11 | X (100-<1000 fold)
8 | Cc1ccc(O)c(C)c1NC(=O)c1cnc(NCc2ccn(C)n2)s1 [BAA-348, N-(3-hydroxy-2,6-dimethylphenyl)-2-(((1-methyl-1H-pyrazol-3-yl)methyl)amino) thiazole-5-carboxamide] | – | – | – | 0.05 to 1 | > 11 | X (100-<1000 fold)
9 | Cc1ccc(O)c(C)c1NC(=O)c1cnc(Nc2ccn(C3COC3)n2)s1 [BAA-007, N-(3-hydroxy-2,6-dimethyl-phenyl)-2-[[1-(oxetan-3-yl)pyrazol-3-yl]amino]thiazole-5-carboxamide] | – | – | – | < 0.05 | 0.05 to 1 | W (10-<100 fold)
10 | CCOC(=O)c1cc(Nc2ncc(C(=O)Nc3c(C)ccc(O)c3C)s2)nn1C [BAA-024] | – | – | – | < 0.05 | 1 to 11 | X (100-<1000 fold)
11 | Cc1ccc(O)c(C)c1NC(=O)c1cnc(Nc2ccn(C(C)C(=O)N3CCN(C)CC3)n2)s1 (stereo not drawn) [BAA-534, N-(3-hydroxy-2,6-dimethylphenyl)-2-((1-(1-(4-methylpiperazin-1-yl)-1-oxopropan-2-yl)-1H-pyrazol-3-yl)amino)thiazole-5-carboxamide] | < 0.05 | > 11 | Y (1000-5000 fold) | – | – | –
12 | Cc1ccc(O)c(C)c1NC(=O)c1cnc(Nc2c3cnccc3nn2C)s1 [BAA-248, N-(3-hydroxy-2,6-dimethylphenyl)-2-((2-methyl-2H-pyrazolo[4,3-c]pyridin-3-yl)amino)thiazole-5-carboxamide] | – | – | – | < 0.05 | 1 to 11 | X (100-<1000 fold)
13 | Cc1ccc(O)c(C)c1NC(=O)c1cnc(Nc2ccn([C@@H]3CCN(C(=O)CC4CCCCC4)C3)n2)s1 [BAA-097] | – | – | – | 0.05 to 1 | > 11 | >X (100-<1000 fold)
14 | Cc1ccc(O)c(C)c1NC(=O)c1cnc(Nc2ccc(S(C)(=O)=O)cc2)s1 [BAA-275, N-(3-Hydroxy-2,6-dimethylphenyl)-2-((4-(methylsulfonyl)phenyl)amino)thiazole-5-carboxamide] | – | – | – | < 0.05 | > 11 | X (100-<1000 fold)
15 | Cc1ccc(O)c(C)c1NC(=O)c1cnc(Nc2ccn(CC(=O)NC3CCN(C)CC3)n2)s1 [BAA-151] | – | – | – | 0.05 to 1 | > 11 | X (100-<1000 fold)
16 | Cc1ccc(O)c(C)c1NC(=O)c1cnc(Nc2ccn(CC(=O)N3CC4C(C3)C4(F)F)n2)s1 (stereo not drawn) [BAA-194] | – | – | – | < 0.05 | > 11 | Y (1000-5000 fold)
17 | Cc1ccc(O)c(C)c1NC(=O)c1cnc(Nc2nc(C)c(-c3cc(F)cc(F)c3)c(C)n2)s1 [BAA-301, 2-((5-(3,5-difluorophenyl)-4,6-dimethylpyrimidin-2-yl)amino)-N-(3-hydroxy-2,6-dimethylphenyl)thiazole-5-carboxamide] | – | – | – | 0.05 to 1 | > 11 | X (100-<1000 fold)
18 | Cc1ccc(O)c(C)c1NC(=O)c1cnc(Nc2ccn(CC(=O)NCC3CCNCC3)n2)s1 [BAA-226] | – | – | – | < 0.05 | > 11 | X (100-<1000 fold)
19 | Cc1ccc(O)c(C)c1NC(=O)c1cnc(Nc2cc(C(N)=O)n(C)n2)s1 [BAA-130, 2-[(5-Carbamoyl-1-methyl-pyrazol-3-yl)amino]-N-(3-hydroxy-2,6-dimethyl-phenyl)thiazole-5-carboxamide] | – | – | – | < 0.05 | 1 to 11 | X (100-<1000 fold)
20 | Cc1ccc(O)c(C)c1NC(=O)c1cnc(Nc2ccn([C@@H]3CCN(C(=O)NC4CC4)C3)n2)s1 [BAA-110, 2-[[1-[(3R)-1-(Cyclopropylcarbamoyl)pyrrolidin-3-yl]pyrazol-3-yl]amino]-N-(3-hydroxy-2.6-dimethyl-phenyl)thiazole-5-carboxamide] | – | – | – | 0.05 to 1 | > 11 | >X (100-<1000 fold)
21 | Cc1ccc(O)c(C)c1NC(=O)c1cnc(Nc2nc(C(F)(F)F)cs2)s1 [BAA-017] | – | – | – | 0.05 to 1 | > 11 | >X (100-<1000 fold)
22 | CCNC(=O)Cn1nc(Nc2ncc(C(=O)Nc3c(C)ccc(O)c3C)s2)cc1C [BAA-202, 2-[[1-[2-(ethylamino)-2-oxo-ethyl]-5-methyl-pyrazol-3-yl]amino]-N-(3-hydroxy-2,6-dimethyl-phenyl)thiazole-5-carboxamide] | – | – | – | < 0.05 | > 11 | X (100-<1000 fold)
23 | Cc1ccc(O)c(C)c1NC(=O)c1cnc(Nc2cc3cc(F)ccc3cn2)s1 [BAA-290, 2-((6-fluoroisoquinolin-3-yl)amino)-N-(3-hydroxy-2,6-dimethylphenyl)thiazole-5-carboxamide] | – | – | – | 0.05 to 1 | > 11 | X (100-<1000 fold)
24 | Cc1cncc(Nc2ncc(C(=O)Nc3c(C)ccc(O)c3C)s2)n1 [BAA-570, N-(3-hydroxy-2,6-dimethylphenyl)-2-((6-methylpyrazin-2-yl)amino)thiazole-5-carboxamide] | < 0.05 | > 11 | X (100-<1000 fold) | – | – | –
25 | Cc1ccc(O)c(C)c1NC(=O)c1cnc(Nc2ncccc2C#N)s1 [BAA-408, 2-((3-cyanopyridin-2-yl)amino)-N-(3-hydroxy-2,6-dimethylphenyl)thiazole-5-carboxamide] | 0.05 to 1 | > 11 | X (100-<1000 fold) | – | – | –
26 | Cc1ccc(O)c(C)c1NC(=O)c1cnc(Nc2ccn(CC(=O)N3CCC(C)(O)CC3)n2)s1 [BAA-169, N-(3-hydroxy-2,6-dimethyl-phenyl)-2-[[1-[2-(4-hydroxy-4-methyl-1-piperidyl)-2-oxo-ethyl]pyrazol-3-yl]amino]thiazole-5-carboxamide] | – | – | – | < 0.05 | > 11 | Y (1000-5000 fold)
27 | Cc1ccc(O)c(C)c1NC(=O)c1cnc(Nc2nc3c(s2)COCC3)s1 [BAA-029, 2-(6,7-dihydro-4H-pyrano[4,3-d]thiazol-2-ylamino)-N-(3-hydroxy-2,6-dimethyl-phenyl)thiazole-5-carboxamide] | – | – | – | 0.05 to 1 | > 11 | X (100-<1000 fold)
28 | Cc1ccc(O)c(C)c1NC(=O)c1cnc(Nc2ccn(C(F)F)n2)s1 [BAA-025, 2-[[1-(difluoromethyl)pyrazol-3-yl]amino]-N-(3-hydroxy-2,6-dimethyl-phenyl)thiazole-5-carboxamide] | – | – | – | 0.05 to 1 | > 11 | X (100-<1000 fold)
